Data published in patent US8148431B2, “Osteogenesis promoter containing β-cryptoxanthin as the active ingredient” (Kemin Health, L.C., priority 2002, dated 2012).
Marks after values point to notes of the source that are not given here.

Legend:
[1] = system: diaphysis tissue of the femur (cortical bone); assay: Bone calcium level in cultured femoral diaphysis tissue pieces; format: cell-based, Wistar male rats; conditions: for Bone calcium level: diaphysis tissue, mean ± SE
Method: (§1) The femurs were extracted from rats (Wistar male rats; 4 to 5 weeks old) (purchased from Japan SLC Co., Ltd. and fed with solid Oriental yeast (MF)) under anesthesia with ether under a germfree condition. The femurs were each washed with 0.25 M sucrose solution, and then divided into the diaphysis (cortical bone) and metaphysis (cancellous bone). The bone tissue pieces were cultured in a culture medium (Dulbecco's modified culture medium containing 5% of glucose; serum-free medium) containing. β-cryptoxanthin, etc. at […] in an incubator filled with 5% CO2-95% air for 48 hours. β-cryptoxanthin used was “β-cryptoxanthin” of Extrasynthase Co., cycloheximide used was “Cycloheximide” of Sigma Co. Ltd., β-carotene was “β-carotene” of Sigma ? , xanthine was “Xanthine” of Sigma Co, Ltd., parathormone was “Parathormone” of Sigma Co. Ltd. and prostaglandin E2 was “Prostaglandin E2” of Sigma Co. Ltd. In the control, only the culture medium was used without β-cryptoxanthin or the like.
(§2) Bone calcium level in the bone tissue was determined. After the culture in the incubator, the tissue pieces were washed with 0.25 M sucrose solution and dried and then the bone was weighed. Then concentrated nitric acid was added to the tissue pieces. After the incineration at 120° C. for 12 hours, the bone calcium level was determined with an atomic absorption photometer (“Perkin-Elmer 303” of Perkin-Elmer Co.).
(§3) The bone component-increasing effect of β-cryptoxanthin was examined. The diaphysis and metaphysis tissue of the femur was cultured in the above-described culture medium containing β-cryptoxanthin ([…]) for 48 hours. Calcium level in the bone tissue, alkaline phosphatase activity (enzyme for accelerating the bone calcification) and the amount of deoxyribonucleic acid (DNA; index of number of cells in the bone tissue) were determined by the same methods as in Example 1. In each test group, the determination vas conducted 6 to 8 times and the results were represented by the average value and the standard error. The significant difference was determined by Student's t-test. The result was compared with that of the control. When P value was not higher than 0.01 (**) or not higher than 0.05 (*), the results were statistically significant.

[2] = system: metaphysis tissue of the femur (cancellous bone); assay: Bone alkaline phosphatase activity in cultured femoral metaphysis tissue pieces; format: cell-based, Wistar male rats; conditions: for Bone alkaline phosphatase activity: metaphysis tissue, mean ± SE
Method: as §1
(§4) The expression level of alkaline phosphatase, which is the most important enzyme for the acceleration of the calcification of bones, was examined. The tissue pieces cultured in the incubator were washed in 0.25 M sucrose solution, then pulverized in 3 ml of 65 mM barbital buffer (pH 7-4) and treated with ultrasonic waves. The resultant liquid was centrifuged. The supernatant, as the enzyme solution, was determined by a method of Walter ad Schutt in Method of Enzymatic Analysis, Vol. 1-2, p. 856, Academic Press, New York, 1965). Namely, this method was carried out as follows: p-nitrophenylphosphoric acid was used as the substrate. 0.05 ml of the enzyme solution was added to 2 ml of diethanolamine buffer (pH 9.8). After the incubation at 37° C. for 30 minutes, 10 ml of 0.05 N NaOH was added to the mixture. The absorbance (405 nm) was determined with a spectrophotometer to determine bone alkaline phosphatase activity of a bone remedy or a compound known to be effective for the bones.
as §3

[3] = system: diaphysis tissue of the femur (cortical bone); assay: Bone alkaline phosphatase activity in cultured femoral diaphysis tissue pieces; format: cell-based, Wistar male rats; conditions: for Bone alkaline phosphatase activity: diaphysis tissue, mean ± SE
Method: as §1, §4, §3

[4] = system: rats, femoral metaphysis tissue; assay: Oral administration to rats: bone alkaline phosphatase activity in metaphysis tissue; format: in vivo, Wistar male rats; conditions: for Bone alkaline phosphatase activity: metaphysis tissue
Method: as §4
(§5) A solution of β-cryptoxanthin in corn oil having one of three kinds of concentration (10, 25 and 50 μg/ml corn oil) was orally administered to rats (Wistar male rats; 4 to 5 weeks old) in an amount/100 g body weight with a probe once a day for 7 days. The rats were sacrificed 24 hours after the final administration. The femurs were excised. The muscles, etc. were taken out and each femur was divided into diaphysis and metaphysis to determine the bone components.
(§6) Tests were conducted to examine whether the bone components are increased by the oral administration of β-cryptoxanthin to rats or not. β-cryptoxanthin was administered for 7 days (10, 25 or 50 μg/100 g body weight/day) and then calcium level in the bone tissue, determination of alkaline phosphatase activity (enzyme for the acceleration of the calcification of bones) and the amount of deoxyribonucleic acid (DNA: index of the number of the cells in the bone tissue) were determined by the same methods as those in Example 1. In each test group, the determination was conducted 6 times and the results were represented by the average value and the standard error. The significant difference was determined by Student's t-test. The result was compared with that of the control. When P value was not higher than 0.01 (*) as compared with the control, the results were statistically significant.

[5] = system: metaphysis tissue of the femur; assay: Bone resorption (PTH or prostaglandin E2): bone calcium level in cultured metaphysis tissue; format: cell-based, Wistar male rats
Method: as §1, §2
The bone mineral dissolution-inhibiting effect of β-cryptoxanthin was examined. […] PTH also has a pathophysiologic role on the expression of osteoporosis caused by the aging. It is known that prostaglandin E2 also causes physiologic bone mineral dissolution. The diaphysis or metaphysis tissue of the femur was cultured in the presence of 10^−7 M PTH or 10^−5 M prostaglandin E2 for 48 hours and then calcium level in the bone tissue was determined. In another experiment, the culture was conducted in the same manner as that described above in the coexistence of them and β-cryptoxanthin (10^−8 M to 10^−6 M) and then calcium level in the bone tissue was determined. In each test group, the determination was conducted 6 to 8 times and the results were represented by the average value and the standard error. The significant difference was determined by Student's t-test. The result was compared with that of the control. When P value was not higher than 0.01 (*) as compared with the control or it is not higher than 0.1 (#) as compared with that of prostaglandin E2, the results were statistically significant.

[6] = system: rats, femoral diaphysis tissue; assay: Oral administration to rats: bone calcium level in diaphysis tissue; format: in vivo, Wistar male rats; conditions: for Bone calcium level: diaphysis tissue
Method: as §2, §5, §6

[7] = Table 2 (protein synthesis inhibitor experiment), 10^−6 M (each agent), n=6
[8] = β-cryptoxanthin 10^−6 M with cycloheximide
[9] = 10, 25 or 50 μg/100 g body weight/day, 7 days
[10] = oral 10 μg/100 g body weight/day for 7 days
[11] = oral 25 μg/100 g body weight/day for 7 days
[12] = oral 50 μg/100 g body weight/day for 7 days

## CC1=C(/C=C/C(C)=C/C=C/C(C)=C/C=C/C=C(C)/C=C/C=C(C)/C=C/C2=C(C)C[C@@H](O)CC2(C)C)C(C)(C)CCC1 [β-cryptoxanthin]
[1]; 10^−8 to 10^−5 M, 48 h culture, vs control
  Effect on calcium level in the diaphysis tissue (in words): significant increase
[1]; [7]
  Bone calcium level: 275.1 ± 4.50* mg/g dry weight
[1]; 10^−5 M, 48 h culture
  Bone calcium level: 291.7 ± 2.29** mg/g dry weight
[1]; 10^−6 M, 48 h culture
  Bone calcium level: 272.2 ± 3.15** mg/g dry weight
[1]; 10^−7 M, 48 h culture
  Bone calcium level: 269.9 ± 6.26** mg/g dry weight
[1]; 10^−8 M, 48 h culture
  Bone calcium level: 249.6 ± 3.33** mg/g dry weight
[1]; [8]
  Calcium level in diaphysis tissue increased by β-cryptoxanthin: change in the presence of cycloheximide (in words): significantly lowered
[2]; 10^−7 to 10^−4 M (so in the source), 48 h culture, vs control
  Effect on the enzymatic (alkaline phosphatase) activity in the metaphysis (in words): increase
[2]; [7]
  Bone alkaline phosphatase activity: 1168.2 ± 30.1* nmol/min/mg protein
[2]; 10^−5 M, 48 h culture
  Bone alkaline phosphatase activity: 1229.5 ± 40.9** nmol/min/mg protein
[2]; 10^−6 M, 48 h culture
  Bone alkaline phosphatase activity: 1150.9 ± 26.8** nmol/min/mg protein
[2]; 10^−7 M, 48 h culture
  Bone alkaline phosphatase activity: 945.2 ± 5.4** nmol/min/mg protein
[2]; 10^−8 M, 48 h culture
  Bone alkaline phosphatase activity: 918.4 ± 4.3 nmol/min/mg protein
[2]; [8]
  Bone alkaline phosphatase activity in metaphysis tissue increased by β-cryptoxanthin: change in the presence of cycloheximide (in words): significantly lowered
[3]; 10^−7 to 10^−5 M, 48 h culture, vs control
  Effect on alkaline phosphatase activity in the diaphysis (in words): significantly increased
[3]; [7]
  Bone alkaline phosphatase activity: 691.5 ± 11.2* nmol/min/mg protein
[3]; 10^−5 M, 48 h culture
  Bone alkaline phosphatase activity: 644.6 ± 15.2** nmol/min/mg protein
[3]; 10^−6 M, 48 h culture
  Bone alkaline phosphatase activity: 684.0 ± 17.7** nmol/min/mg protein
[3]; 10^−7 M, 48 h culture
  Bone alkaline phosphatase activity: 604.2 ± 9.6* nmol/min/mg protein
[3]; 10^−8 M, 48 h culture
  Bone alkaline phosphatase activity: 568.5 ± 9.5 nmol/min/mg protein
[3]; [8]
  Bone alkaline phosphatase activity in diaphysis tissue increased by β-cryptoxanthin: change in the presence of cycloheximide (in words): significantly lowered
[4]; [9]
  Effect on alkali phosphatase activity in the metaphysis tissue after oral administration (in words): significantly increased
[4]; [10]
  Bone alkaline phosphatase activity: 2.21 ± 0.023* μmol/min/mg protein
[4]; [11]
  Bone alkaline phosphatase activity: 2.545 ± 0.029* μmol/min/mg protein
[4]; [12]
  Bone alkaline phosphatase activity: 1.92 ± 0.015* μmol/min/mg protein
[5]; metaphysis tissue, β-cryptoxanthin 10^−5 to 10^−6 M (so in the source) with prostaglandin E2 10^−5 M
  Control of prostaglandin E2-caused reduction of calcium level in the bone tissue (in words): completely controlled
[5]; β-cryptoxanthin 10^−8 to 10^−6 M in the presence of PTH
  Control of PTH-caused reduction of calcium level in the metaphysis tissue (in words): significantly controlled
[6]; [9]
  Effect on calcium level in the diaphysis tissue after oral administration (in words): significantly increased
[6]; [10]
  Bone calcium level: 232.8 ± 3.00* mg/g dry weight
[6]; [11]
  Bone calcium level: 248.3 ± 5.10* mg/g dry weight
[6]; [12]
  Bone calcium level: 247.5 ± 4.20* mg/g dry weight
